In patent US20060009465A1, “Treatment of sleep disorders using sleep target modulators” (priority 2002, published 2006):
“Also recorded” adds a separate entry of the source.

Test system: Male Wistar rats
Assay: SCORE-2000 sleep-wake assay (EEG/EMG, locomotor activity, body temperature)
[1] = Example 2, 10 mg/kg IP at CT-18
[2] = Example 3, male Wistar rats, 30 mg/kg
[3] = Example 2, 3 mg/kg and 10 mg/kg IP at CT-5

Cl.O=C(O)C1CN(CCCn2nc3ccccn3c2=O)CCN1c1cccc(Cl)c1 (centres unmarked) [HY-2724]
increasing sleep and sleep consolidation (Example 4, male Wistar rats, 30 mg/kg): ineffective

O=c1n(CCCN2CCN(c3cccc(Cl)c3)CC2)nc2ccccn12 [Trazodone]
REM Sleep Inhibition [1]: without evidence | adverse thermoregulatory events post-treatment [1]: no evidence | disproportional motor inhibition / locomotor activity changes [1]: without evidence; also recorded: no evidence | nonREM sleep time [1]: increased nonREM sleep time; also recorded: markedly and significantly increased | rebound insomnia [1]: without evidence; also recorded: no evidence | Body Temp (CV) Adverse Event [2]: Yes | Disproportional Motor Inhibition [2]: None | Initial Sleep Interference [2]: initially interferes with sleep; also recorded: significant initial sleep interference | REM Sleep Inhibition [2]: inhibits REM sleep; also recorded: significant REM sleep inhibition | rebound insomnia [2]: None

Clc1cccc(N2CCNCC2)c1 [m-CPP, meta-chlorophenylpiperazine]
interference with sleep, time post-treatment [3]: 2 to 3 h | rebound hypersomnolence [3]: followed by a rebound hypersomnolence | reduction in nonREM sleep time, lasting post-treatment [3]: 2 to 3 h
